Values of other authors as cited in patent US11027026B2, “Polymer, and contrast agent for photoacoustic imaging, including the polymer” (CANON KABUSHIKI KAISHA, priority 2014, dated 2021).

Details: in vivo

Question: Which Half-life in blood does the source give for `CC1(C)C(/C=C/C=C/C=C/C=C2/N(CCCCS(=O)(=O)[O-])c3ccc4ccccc4c3C2(C)C)=[N+](CCCCS(=O)(=O)[O-])c2ccc3ccccc3c21.[Na+]` [ICG, indocyanine green] here?
Answer: The Half-life in blood was “about several minutes”.
